From patent US20240166690A1, “MULTI-TARGET CY[…] FOR OPIOID/NEUROPEPTIDE FF RECEPTORS, AND PREPARATION THEREFOR AND APPLICATION THEREOF” (SHANGHAI TIANCI LIFE SCIENCE DEVELOPMENT CO., LTD., priority 2021, published 2024)
Bridge positions count the residues as written; N and C are the ends. Square brackets hold non-standard residues; d marks the D form. Peptide text beside a SMILES is read from it. NMeF = CN[C@@H](Cc1ccccc1)C(=O)O; dOrn = NCCC[C@@H](N)C(=O)O

Assays:
Delta-opioid receptor = biological target: T1, Delta-opioid receptor (Homo sapiens, UniProt P41143); experiment: cAMP functional experiment, Delta-opioid receptor (forskolin-induced cAMP accumulation); format: cell-based
T1 construct: expressed in transfected cells; host or cells: HEK293
Method: The agonistic activity of the cyclopeptide molecule of the present invention against Mu-opioid receptor, Delta-opioid receptor, Kappa-opioid receptor, NPFF1 receptor and NPFF2 receptor was evaluated by detecting the regulation of the cyclopeptide molecule of the present invention on the intracellular accumulation of cyclic adenosine monophosphate (cAMP) induced by Forskolin in HEK293 cells stably expressing these five receptors. The experimental method was: the cells were seeded in 24 well plates with 120000 cells per well, and were cultured for more than 20 hours. At the beginning of the experiment, the culture medium in the culture dish was suck out, and then 500 μL of preheated serum-free medium containing 1 mM of IBMX was added, the mixture was incubated at 37° C. for 10 minutes. Then each 10 μL of the drug to be tested and 10 μM of forskolin (final concentration) were added to each well. The mixture was incubated at 37° C. for 30 minutes. After incubation, all the liquid was suck out from the culture dish, 500 μL of 0.2 N hydrochloric acid was added to each well, the mixture was incubated at room temperature for 30 minutes to promote cell lysis. After lysis was complete, NaOH was added to neutralize the hydrochloric acid solution used for lysis. Then all the liquid was suck out from the culture dish into centrifuge tubes, the liquid was centrifuged at 12000 rpm for 2 minutes. 50 μL was taken to a clean centrifuge tube, 100 μL of 60 μg/μL PKA was added, and 100 μL of TE cAMP buffer was added to the blank control group (B). Another 50 μL of 0.5 μ Ci[^3H]cAMP was added to each of the above centrifuge tubes, the mixture was quickly mixed and incubated at 4° C. for more than 2 hours. After incubation, another 100 μL of activated carbon suspension was added to each tube, the mixture was vortex agitated evenly, placed in an ice bath for 1 minute, centrifuged at 5000 rpm for 4 minutes. 200 μL of supernatant after centrifugation in each tube was suck out to a 24 well plate, with an additional 700 μL of scintillator liquid added per well, then the 24 well plate was sealed with adhesive film, placed for 3 hours, then placed on the scintillation instrument for measurement.
The inhibitory effect of cAMP was represented by the percentage (% control) of drug inhibition of intracellular cAMP accumulation induced by Forskolin, wherein % control=(cAMP content when treated with Forskolin−cAMP content when Forskolin co-treated with the test drug)/(cAMP content when treated with Forskolin−cAMP content when treated with solvent). The related % control data was represented by mean±S.E.M. The dose-effect relationship of the drug was statistically analyzed using a nonlinear regression model, and the IC50 values of the multi-target cyclopeptide molecule on inhibition of Forskolin induced intracellular cAMP accumulation were calculated using the statistical software GraphPad Prism version 5.0.

Kunming male mice = experiment: Photothermal tail flick experiment, oral administration; format: in vivo; conditions: for Maximum analgesic time: oral administration at the maximum analgesic dose; for Maximum analgesic time / analgesic duration: tail flick; for ED50 value (95% confidence interval), oral analgesic activity / analgesic duration: oral administration; for ED50 value (95% confidence interval), oral analgesic activity: photothermal tail flick
Method: Two administration methods were used: peripheral subcutaneous administration and oral administration. Subsequently, the analgesic activity of the drug was studied using an acute pain model of photothermal tail flick in mice.
1 mL sterile syringe was used for oral administration (p.o.), the pinhead was replaced with a mouse gastric lavage needle, and […] of the drug was orally administered. The skin on the neck and back of the mouse was grasped with the left hand with the abdomen facing upwards. Noted that the mouse's entire body was fixed to vertical, which was beneficial for oral gavage. A gastric lavage needle (No. 12 needle and 1 mL syringe) was held in the right hand and was inserted to the esophagus along the upper jaw which is pressed the tongue tightly from the corner of the mouse's mouth. Gastric lavage fluid can be injected when the needle inserted 2.5 cm. The inserting length of the needle should be determined through practice in advance, as there is a sense of falling into a hole after the needle is inserted. If the injection position was appropriate, it should be very smooth. […] This can cause immediate death of the mouse after gavage.
The photothermal tail flick experiment is based on the experimental method summarized by D'Amour and Smith to optimize the experimental parameters. The experiment selected Kunming male mice with body weigh 21±2 g, and ambient temperature controlled at 22±2° C. The experimental mice were allowed to drink water freely and were moved from the breeding room to the experimental area for adaptation for 30 minutes before starting the experiment. Then the mice were grab with the right hand and the tail hang freely. Then the mice's tail were placed on a radiation light source, 2-3 mm away from the mice tail. The intensity of radiation heat was adjusted to the tail flick time of mice being 3-5 s, which is the basic pain threshold of photothermal tail flick. The irradiation time of the mice tail should not exceed 10 s to prevent scalding of the mice tail, which was the maximum latency for photothermal tail flick. After administration, time points of 10, 20, 30, 45, 60, 90, 120, 180, 240, 300, 360, and 420 minutes were selected to measure the tail flick latency of mice after administration.
The analgesic effect of drugs was generally evaluated using the maximum analgesic effect MPE (%), MPE (%)=100×[(pain threshold after administration−basic pain threshold)/(10 seconds−basic pain threshold)]. 50% effective dose (ED50) refers to the corresponding drug dose that causes a 50% effect. ED50 and 95% confidence interval were calculated using MPE (%) and the drug concentration that achieves the maximum analgesic effect MPE (%) by the statistical software GraphPad Prism 5.0. The difference in analgesic effects was statistically analyzed using one-way ANOVA (Dunnett test), *P<0.05, **P<0.01, and ***P<0.001 indicated significance of the difference between the group with only drug injected and the saline group.

male mice = experiment: Conditioned place preference experiment (CPP); format: in vivo; conditions: 10000 μg/kg orally
Method: Conditioned place preference experiment (CPP) was conducted in a device consisting of three organic glass boxes, wherein two large boxes (20×20×20 cm) on either side separated by a small box (5×20×20 cm) in the middle. A small door of 5×5 was at the bottom of two large boxes for mice to enter and exit, and the doors can be closed. A box on one side was white, with a rough wire mesh as the bottom and a light intensity of 50 lux. A box on other side was black, with a smooth bottom and a light intensity of 20 lux. 25±5 g male mice were selected for the experiment, the room temperature was 22±1° C. On the first day of the experiment, the mice were first screened, allowing them to shuttle freely between two boxes for 15 minutes. The time the mice stayed in one box was recorded, and mice that stayed for more than 9 minutes were removed. Mice without preference/aversion were selected. […] On the 5th day, CPP performance was measured. As on the first day, the time stay in each box was measured for the mice after administration with the duration of 15 minutes. The inter group differences between different drug treatments in the CPP experiment and the differences in the number of jumps in the naloxone withdrawal experiment was statistically analyzed using paired t-tests. *P<0.05, **P<0.01, and ***P<0.001 indicated significance of differences between the drug treatment group and the saline group.

T1 sequence (P41143 whole entry): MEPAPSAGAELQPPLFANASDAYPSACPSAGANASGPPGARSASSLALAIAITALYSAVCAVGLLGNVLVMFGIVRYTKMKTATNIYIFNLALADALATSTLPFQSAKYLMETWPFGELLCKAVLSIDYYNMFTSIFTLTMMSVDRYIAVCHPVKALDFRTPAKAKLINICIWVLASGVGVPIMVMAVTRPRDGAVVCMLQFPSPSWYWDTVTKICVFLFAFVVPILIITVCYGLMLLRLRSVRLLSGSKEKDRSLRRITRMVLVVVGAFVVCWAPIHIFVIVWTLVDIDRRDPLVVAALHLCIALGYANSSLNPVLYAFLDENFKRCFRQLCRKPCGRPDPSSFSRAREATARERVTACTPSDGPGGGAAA

| SMILES | IC50 (Delta-opioid receptor) [nM] | Maximum analgesic time (Kunming male mice) [min] | ED50 value (95% confidence interval), oral analgesic activity (Kunming male mice) [µg/kg] | analgesic duration (Kunming male mice) [min] | conditioned place preference (male mice) |
| --- | --- | --- | --- | --- | --- |
| CN1C(=O)CNC(=O)[C@H](NC(=O)[C@@H](N)Cc2ccc(O)cc2)CCCCNC(=O)C[C@@H](C(=O)N2CCC[C@H]2C(=O)N[C@@H](CCC(N)=O)C(=O)N[C@@H](CCCNC(=N)N)C(=O)N[C@@H](Cc2ccccc2)C(N)=O)NC(=O)[C@@H]1Cc1ccccc1 [Compound 1, Tyr-c[D-Lys-Gly-NMe-Phe-Asp]-Pro-Gln-Arg-Phe-NH2] (H-Y[dK]G[NMeF]DPQRF-NH2; lactam 2-5) | 549 | 30 | 1.37 | 240 | no phenomenon of conditioned place preference |
| CN1C(=O)CNC(=O)[C@H](NC(=O)[C@@H](N)Cc2ccc(O)cc2)CCCNC(=O)CC[C@@H](C(=O)N2CCC[C@H]2C(=O)N[C@@H](CCC(N)=O)C(=O)N[C@@H](CCCNC(=N)N)C(=O)N[C@@H](Cc2ccccc2)C(N)=O)NC(=O)[C@@H]1Cc1ccccc1 [Compound 11, Tyr-c^[2,5][D-Orn-Gly-NMe-Phe-Glu]-Pro-Gln-Arg-Phe-NH2] (H-Y[dOrn]G[NMeF]EPQRF-NH2; lactam 2-5) | 1560 | 20 | 0.14 | 240 | no phenomenon of conditioned place preference |
